Source: ChEMBL document CHEMBL3856190, “Novel spirothiazamenthane inhibitors of the influenza A M2 proton channel” (Eur J Med Chem, 2016)
Activity calls are given as the source filed them. No cut-off for these calls is given here.

Columns and labels:
[1] = Inhibition of Influenza A virus A/udorn/72(H3N2) wild type M2 proton channel expressed in yeast assessed as growth restoration measured after 44 hrs by turbidometric assay; parameters: species or system Influenza A virus (A/udorn/1972(H3N2))
[2] = Cytotoxicity against yeast cells assessed as growth inhibition at 100 uM after 44 hrs by turbidometric assay; format: toxicity, cell-based; details: saccharomyces cerevisiae
[3] = Cytotoxicity against yeast cells assessed as growth inhibition after 44 hrs by turbidometric assay; format: toxicity, cell-based; details: Saccharomyces cerevisiae
MDCK [4] = assay: Antiviral activity against Influenza A virus A/Puerto Rico/8/34 expressing wild type M2 proton channel infected MDCK cells assessed as inhibition of viral replication at 20 to 100 uM measured after 10 hrs by miniplaque assay; format: functional, cell-based; details: Influenza A virus (A/Puerto Rico/8/1934(H1N1))
[5] = Cytotoxicity against MDCK cells assessed as reduction in cell viability at 100 uM; format: toxicity, cell-based, Canis lupus familiaris; details: dog
MDCK [6] = assay: Antiviral activity against amantadine-sensitive Influenza A virus A/Hong Kong/1/68(H3N2) infected in MDCK cells assessed as protection from virus-induced cell death at 1 uM measured after 72 hrs by MTT assay; format: functional, cell-based; details: Influenza A virus (A/Hong Kong/1/1968(H3N2))
[7] = Cytotoxicity against MDCK cells at 3 uM measured after 72 hrs by MTT assay; format: toxicity, cell-based, Canis lupus familiaris; details: dog
[8] = Antiviral activity against Influenza A virus A/Puerto Rico/8/34 expressing wild type M2 proton channel infected in MDCK cells assessed as inhibition of viral replication measured after 10 hrs by miniplaque assay; format: functional, cell-based, Influenza A virus (A/Puerto Rico/8/1934(H1N1))

## CN1CCC(CNC2=NC(C)(C)[C@]3(CC[C@H](C)CC3)S2)CC1
[1]
  EC50: 10 µM
[2]
  Activity: Non-Toxic

## COc1cccc(CNC2=NC(C)(C)[C@]3(CC[C@H](C)CC3)S2)c1
[3]
  IC50 at 44 h: 30 µM

## CC1(C)N=C(NCCc2ccccn2)S[C@]12CC[C@@H](C)CC2
[1]
  EC50: 3 µM
[2]
  Activity: Non-Toxic

## CC1(C)N=C(NCCc2ccncc2)S[C@]12CC[C@@H](C)CC2
[1]
  EC50: > 100 µM
[2]
  Activity: Non-Toxic

## COc1ccc(CNC2=NC(C)(C)[C@]3(CC[C@H](C)CC3)S2)cc1
[3]
  IC50 at 44 h: 30 µM

## CC1(C)N=C(NCc2ccccc2)S[C@]12CC[C@@H](C)CC2
[3]
  IC50 at 44 h: 10 µM

## CCCCCCCCN1CCN(CCNC2=NC(C)(C)[C@]3(CC[C@H](C)CC3)S2)CC1
[1]
  EC50: 10 µM
[2]
  Activity: Non-Toxic
MDCK [4]
  inhibition: Active

## CCN1CCN(CCNC2=NC(C)(C)[C@]3(CC[C@H](C)CC3)S2)CC1
[1]
  EC50: > 30 µM
[3]
  IC50 at 44 h: 100 µM

## CCOCCN1CCN(CCNC2=NC(C)(C)[C@]3(CC[C@H](C)CC3)S2)CC1
[1]
  EC50: 2.1 µM
[2]
  Activity: Non-Toxic
MDCK [4]
  inhibition: Active

## COc1ccccc1CNC1=NC(C)(C)[C@]2(CC[C@H](C)CC2)S1
[3]
  IC50 at 44 h: 10 µM

## CC1(C)N=C(NCc2ccc3cc[nH]c3c2)S[C@]12CC[C@@H](C)CC2
[3]
  IC50 at 44 h: > 30 µM

## CC1(C)N=C(NCc2ccccn2)S[C@]12CC[C@@H](C)CC2
[1]
  EC50: 10 µM
[2]
  Activity: Non-Toxic

## CC1(C)N=C(NCc2ccc(C#N)cc2)S[C@]12CC[C@@H](C)CC2
[3]
  IC50 at 44 h: 100 µM

## CC1(C)N=C(N2CCNCC2)S[C@]12CC[C@@H](C)CC2
[1]
  EC50: > 100 µM
[2]
  Activity: Non-Toxic

## CC1(C)N=C(NC(=O)c2ccccc2)S[C@]12CC[C@@H](C)CC2
[3]
  IC50 at 44 h: 10 µM

## CC1(C)N=C(NCc2ccc3c(c2)OCO3)S[C@]12CC[C@@H](C)CC2
[3]
  IC50 at 44 h: > 30 µM

## CC1(C)N=C(NCCn2ccnc2)S[C@]12CC[C@@H](C)CC2
[1]
  EC50: > 100 µM
[2]
  Activity: Non-Toxic

## COc1cc(F)ccc1CNC1=NC(C)(C)[C@]2(CC[C@H](C)CC2)S1
[3]
  IC50 at 44 h: > 30 µM

## CC1(C)N=C(NCCN2CCOCC2)S[C@]12CC[C@@H](C)CC2
[1]
  EC50: > 100 µM
[2]
  Activity: Non-Toxic

## CC(C)CCN1CCN(CCNC2=NC(C)(C)[C@]3(CC[C@H](C)CC3)S2)CC1
[1]
  EC50: 10 µM
[2]
  Activity: Non-Toxic
MDCK [4]
  inhibition: Active
[5]
  Activity: Toxic

## CC1(C)N=C(NCCc2cccnc2)S[C@]12CC[C@@H](C)CC2
[1]
  EC50: 0.9 µM
[2]
  Activity: Non-Toxic

## CC1(C)N=C(NCC2CCNCC2)S[C@]12CC[C@@H](C)CC2
[1]
  EC50: > 100 µM
[2]
  Activity: Non-Toxic

## COCCNC1=NC(C)(C)[C@]2(CC[C@H](C)CC2)S1
[2]
  Activity: Non-Toxic

## CC1(C)N=C(NCCN2CCN(S(=O)(=O)c3ccccc3)CC2)S[C@]12CC[C@@H](C)CC2
[1]
  EC50: 18 µM
[2]
  Activity: Non-Toxic

## CC1(C)N=C(NCc2ccco2)S[C@]12CC[C@@H](C)CC2
[3]
  IC50 at 44 h: > 30 µM

## CC1(C)N=C(NCc2cccs2)S[C@]12CC[C@@H](C)CC2
[3]
  IC50 at 44 h: 30 µM

## COc1ccc(CNC2=NC(C)(C)[C@]3(CC[C@H](C)CC3)S2)cc1OC
[2]
  Activity: Non-Toxic

## CC1(C)N=C(NCc2ccc(F)cc2)S[C@]12CC[C@@H](C)CC2
[3]
  IC50 at 44 h: 30 µM

## CN(C)CCN1CCN(CCNC2=NC(C)(C)[C@]3(CC[C@H](C)CC3)S2)CC1
[1]
  EC50: 70 µM
[2]
  Activity: Non-Toxic
MDCK [4]
  inhibition: Active

## CC1(C)N=C(NCCNCc2ccccc2)S[C@]12CC[C@@H](C)CC2
[3]
  IC50 at 44 h: 100 µM

## CC1(C)N=C(N2CCOCC2)S[C@]12CC[C@@H](C)CC2
[1]
  EC50: 0.7 µM
[2]
  Activity: Non-Toxic

## CC1(C)N=C(NS(=O)(=O)c2ccccc2)S[C@]12CC[C@@H](C)CC2
[3]
  IC50 at 44 h: 30 µM

## CC1(C)N=C(NCCN2CCNCC2)S[C@]12CC[C@@H](C)CC2
[1]
  EC50: 2.6 µM
[2]
  Activity: Non-Toxic

## Cc1cccnc1NCCNC1=NC(C)(C)[C@]2(CC[C@H](C)CC2)S1
[3]
  IC50 at 44 h: 100 µM

## CN(C)CCNC1=NC(C)(C)[C@]2(CC[C@H](C)CC2)S1
[1]
  EC50: 100 µM
[2]
  Activity: Non-Toxic

## CC1(C)N=C(NCc2ccncc2)S[C@]12CC[C@@H](C)CC2
[1]
  EC50: 2 µM
[2]
  Activity: Non-Toxic

## CC1(C)N=C(NCCN2CCCCC2)S[C@]12CC[C@@H](C)CC2
[1]
  EC50: > 100 µM
[2]
  Activity: Non-Toxic

## COc1ccc(C(=O)NC2=NC(C)(C)[C@]3(CC[C@H](C)CC3)S2)cc1
[3]
  IC50 at 44 h: 10 µM

## CC1(C)N=C(NCc2cccc(F)c2)S[C@]12CC[C@@H](C)CC2
[3]
  IC50 at 44 h: 10 µM

## COc1ccc(C(=O)NC2=NC(C)(C)[C@]3(CC[C@H](C)CC3)S2)c(OC)c1
[3]
  IC50 at 44 h: 3 µM

## CC1(C)N=C(NCCN2CCN(S(C)(=O)=O)CC2)S[C@]12CC[C@@H](C)CC2
[2]
  Activity: Non-Toxic

## CN1CCN(CCNC2=NC(C)(C)[C@]3(CC[C@H](C)CC3)S2)CC1
[1]
  EC50: 3 µM
[2]
  Activity: Non-Toxic
MDCK [4]
  inhibition: Active

## CN1CCN(C2=NC(C)(C)[C@]3(CC[C@H](C)CC3)S2)CC1
[1]
  EC50: > 100 µM
[2]
  Activity: Non-Toxic

## CC1(C)N=C(N)S[C@]12CC[C@@H](C)CC2
[1]
  EC50: 0.03 µM
[2]
  Activity: Non-Toxic
MDCK [6]
  Activity: Active
[7]
  Activity: Non-Toxic
[8]
  EC50: 0.02 µM

## CC1(C)N=C(NCc2ccc(O)c(F)c2)S[C@]12CC[C@@H](C)CC2
[1]
  EC50: 10 µM
[3]
  IC50 at 44 h: > 30 µM

## CC1(C)N=C(NCCN2CCN(Cc3ccccc3)CC2)S[C@]12CC[C@@H](C)CC2
[1]
  EC50: 0.6 µM
[3]
  IC50 at 44 h: > 30 µM
MDCK [4]
  inhibition: Active
[5]
  Activity: Toxic

## CC1(C)N=C(NCCN2CCN(CC3CCCCC3)CC2)S[C@]12CC[C@@H](C)CC2
[1]
  EC50: 20 µM
[2]
  Activity: Non-Toxic

## CC1(C)N=C(NCCNc2ccccc2)S[C@]12CC[C@@H](C)CC2
[3]
  IC50 at 44 h: 10 µM

## CC1(C)N=C(NCc2cccnc2)S[C@]12CC[C@@H](C)CC2
[1]
  EC50: 5 µM
[2]
  Activity: Non-Toxic

## CC(C)(C)OC(=O)N1CCN(CCNC2=NC(C)(C)[C@]3(CC[C@H](C)CC3)S2)CC1
[3]
  IC50 at 44 h: > 30 µM

## COc1ccc(CNC2=NC(C)(C)[C@]3(CC[C@H](C)CC3)S2)c(OC)c1
[1]
  EC50: > 30 µM
[3]
  IC50 at 44 h: 100 µM

## COc1ccc(CNC2=NC(C)(C)[C@]3(CC[C@H](C)CC3)S2)cc1F
[3]
  IC50 at 44 h: 100 µM

## COc1ccc(CNC2=NC(C)(C)[C@]3(CC[C@H](C)CC3)S2)cc1Cl
[3]
  IC50 at 44 h: > 30 µM

## CC1(C)N=C(NCCn2cccc2)S[C@]12CC[C@@H](C)CC2
[3]
  IC50 at 44 h: 100 µM

## CC1(C)N=C(NCc2ccccc2O)S[C@]12CC[C@@H](C)CC2
[1]
  EC50: 10 µM
[3]
  IC50 at 44 h: 100 µM

## CC(C)N1CCN(CCNC2=NC(C)(C)[C@]3(CC[C@H](C)CC3)S2)CC1
[1]
  EC50: 30 µM
[2]
  Activity: Non-Toxic

## CC(=O)N1CCN(CCNC2=NC(C)(C)[C@]3(CC[C@H](C)CC3)S2)CC1
[1]
  EC50: 26 µM
[2]
  Activity: Non-Toxic

## CCCCOc1ccc(CN2CCN(CCNC3=NC(C)(C)[C@]4(CC[C@H](C)CC4)S3)CC2)cc1
[3]
  IC50 at 44 h: 3 µM

## CC1(C)N=C(NCc2cc(-c3ccccc3)on2)S[C@]12CC[C@@H](C)CC2
[3]
  IC50 at 44 h: 10 µM

## CCCCN1CCN(CCNC2=NC(C)(C)[C@]3(CC[C@H](C)CC3)S2)CC1
[1]
  EC50: 3 µM
[2]
  Activity: Non-Toxic
MDCK [4]
  inhibition: Active
[5]
  Activity: Toxic

## CC1(C)N=C(NCCN2CCN(CCO)CC2)S[C@]12CC[C@@H](C)CC2
[1]
  EC50: 50 µM
[2]
  Activity: Non-Toxic

## CC1(C)N=C(NCCN2CCCC2)S[C@]12CC[C@@H](C)CC2
[1]
  EC50: 8 µM
[2]
  Activity: Non-Toxic

## CC1(C)N=C(NCc2cccc(O)c2)S[C@]12CC[C@@H](C)CC2
[1]
  EC50: > 40 µM
[2]
  Activity: Non-Toxic

## Cc1cnc(CN2CCN(CCNC3=NC(C)(C)[C@]4(CC[C@H](C)CC4)S3)CC2)cn1
[1]
  EC50: 20 µM
[3]
  IC50 at 44 h: 100 µM

## CC1(C)N=C(NCc2ccccc2F)S[C@]12CC[C@@H](C)CC2
[3]
  IC50 at 44 h: 10 µM

## CC1(C)N=C(N2CCCCC2)S[C@]12CC[C@@H](C)CC2
[1]
  EC50: 10 µM
[2]
  Activity: Non-Toxic
